Test results: BindingDB's records for doi:10.1016/j.bioorg.2016.03.001 (Jishou University, 2016)
pIC50: −log10 of the molar value.

Target: Alpha-glucosidase MAL12 (Saccharomyces cerevisiae (strain ATCC 204508 / S288c), UniProt P53341)
Assay: In vitro Assay of alpha-Glucosidasee Inhibitory Activity
Conditions: pH 6.8
Description: The test compounds were dissolved in DMSO to prepare the required distributing concentration. α-Glucosidase inhibitory activity was assayed by using 50 mM phosphate buffer (pH 6.8) at 37 °C. The enzymatic reaction mixture composed of 20 µL α-glucosidase (0.2 U), 10 µL of various concentrations of test compounds and 140 µL of phosphate buffer was incubated at 37 °C for 10 min. Then 0.5 mM p-nitrophenyl α-D-glucopyranoside (30 µL) was added to the mixture as a substrate. After further incubation at 37 °C for 30 min. The absorbance was measured spectrophotometrically at 405 nm. The sample solution was replaced by DMSO as a control. Acarbose was used as a positive control. All experiments were carried out in triplicates.

Sequence of Alpha-glucosidase MAL12 (P53341 whole entry): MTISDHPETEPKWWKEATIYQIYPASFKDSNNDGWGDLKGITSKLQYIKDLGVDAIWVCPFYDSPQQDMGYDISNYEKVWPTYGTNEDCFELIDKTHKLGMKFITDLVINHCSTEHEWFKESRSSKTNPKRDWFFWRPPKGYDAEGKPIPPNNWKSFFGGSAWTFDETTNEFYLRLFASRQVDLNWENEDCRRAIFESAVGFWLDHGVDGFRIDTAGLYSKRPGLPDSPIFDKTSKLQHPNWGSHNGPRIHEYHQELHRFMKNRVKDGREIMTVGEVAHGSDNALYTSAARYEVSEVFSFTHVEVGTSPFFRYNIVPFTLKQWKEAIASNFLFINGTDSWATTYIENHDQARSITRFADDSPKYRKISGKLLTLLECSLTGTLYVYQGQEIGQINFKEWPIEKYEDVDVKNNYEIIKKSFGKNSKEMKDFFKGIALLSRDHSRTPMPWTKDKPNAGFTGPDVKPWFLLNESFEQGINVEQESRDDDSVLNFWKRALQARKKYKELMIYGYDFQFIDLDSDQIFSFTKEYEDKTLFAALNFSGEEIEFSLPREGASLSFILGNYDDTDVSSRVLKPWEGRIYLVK

| pIC50 | Compound |
| --- | --- |
| 4.09 | COc1ccc(/C=N/NC(=O)c2nc(-c3cc4ccccc4oc3=O)cs2)cc1 [(E)-N'-(4-Methoxybenzylidene)-4-(2-oxo-2H-chromen-3-yl)thiazole-2-carbohydrazide (7a)] |
| 4.98 | O=C(N/N=C/c1ccc(Cl)cc1)c1nc(-c2cc3ccccc3oc2=O)cs1 [(E)-N'-(4-Chlorobenzylidene)-4-(2-oxo-2H-chromen-3-yl)thiazole-2-carbohydrazide (7m)] |
| 4.78 | O=C(N/N=C/c1ccc(O)c(F)c1)c1nc(-c2cc3ccccc3oc2=O)cs1 [(E)-N'-(3-Fluoro-4-hydroxybenzylidene)-4-(2-oxo-2Hchromen-3-yl)thiazole-2-carbohydrazide (7g)] |
| 4.60 | O=C(N/N=C/c1ccc(O)cc1)c1nc(-c2cc3ccccc3oc2=O)cs1 [(E)-N'-(4-Hydroxybenzylidene)-4-(2-oxo-2H-chromen-3-yl)thiazole-2-carbohydrazide (7c)] |
| 4.92 | O=C(N/N=C/c1cccc(Cl)c1)c1nc(-c2cc3ccccc3oc2=O)cs1 [(E)-N'-(3-Chlorobenzylidene)-4-(2-oxo-2H-chromen-3-yl)thiazole-2-carbohydrazide (7n)] |
| 4.80 | O=C(N/N=C/c1ccc(C(F)(F)F)cc1)c1nc(-c2cc3ccccc3oc2=O)cs1 [(E)-4-(2-Oxo-2H-chromen-3-yl)-N'-(4-(trifluoromethyl)benzylidene)thiazole-2-carbohydrazide (7o)] |
| 5.08 | O=C(N/N=C/c1cc(Cl)ccc1O)c1nc(-c2cc3ccccc3oc2=O)cs1 [(E)-N'-(5-Chloro-2-hydroxybenzylidene)-4-(2-oxo-2Hchromen-3-yl)thiazole-2-carbohydrazide (7h)] |
| 4.65 | O=C(N/N=C/c1cccc(F)c1)c1nc(-c2cc3ccccc3oc2=O)cs1 [(E)-N'-(3-Fluorobenzylidene)-4-(2-oxo-2H-chromen-3-yl)thiazole-2-carbohydrazide (7q)] |

Continued, molecule first:

| Compound | pIC50 |
| --- | --- |
| O=C(N/N=C/c1cccc(Br)c1)c1nc(-c2cc3ccccc3oc2=O)cs1 [(E)-N'-(3-bromobenzylidene)-4-(2-oxo-2H-chromen-3-yl)thiazole-2-carbohydrazide (7r)] | 4.85 |
| COc1ccccc1/C=N/NC(=O)c1nc(-c2cc3ccccc3oc2=O)cs1 [(E)-N'-(2-Methoxybenzylidene)-4-(2-oxo-2H-chromen-3-yl)thiazole-2-carbohydrazide (7s)] | 4.19 |
| CC(C)(C)c1cc(/C=N/NC(=O)c2nc(-c3cc4ccccc4oc3=O)cs2)c(O)c(C(C)(C)C)c1 [(E)-N'-(3,5-Di-tert-butyl-2-hydroxybenzylidene)-4-(2-oxo-2Hchromen-3-yl)thiazole-2-carbohydrazide (7d)] | 4.99 |
| COc1ccc(/C=N/NC(=O)c2nc(-c3cc4ccccc4oc3=O)cs2)c(O)c1 [(E)-N'-(2-Hydroxy-4-methoxybenzylidene)-4-(2-oxo-2Hchromen-3-yl)thiazole-2-carbohydrazide (7i)] | 4.52 |
| O=C(N/N=C/c1ccccc1O)c1nc(-c2cc3ccccc3oc2=O)cs1 [(E)-N'-(2-Hydroxybenzylidene)-4-(2-oxo-2H-chromen-3-yl)thiazole-2-carbohydrazide (7b)] | 4.43 |
| O=C(N/N=C/c1ccccc1F)c1nc(-c2cc3ccccc3oc2=O)cs1 [(E)-N'-(2-Fluorobenzylidene)-4-(2-oxo-2H-chromen-3-yl)thiazole-2-carbohydrazide (7p)] | 4.63 |
| O=C(N/N=C/c1ccc(O)c(O)c1)c1nc(-c2cc3ccccc3oc2=O)cs1 [(E)-N'-(3,4-Dihydroxybenzylidene)-4-(2-oxo-2H-chromen-3-yl)thiazole-2-carbohydrazide (7k)] | 4.74 |
